Experimental findings from ChEMBL document CHEMBL1144459, “Discovery of potent thiosemicarbazone inhibitors of rhodesain and cruzain” (Bioorg Med Chem Lett, 2005) are described below.

For assay [1], the target named is Cruzipain (Trypanosoma cruzi, UniProt P25779). In words: Inhibitory concentration against cruzain of Trypanosoma cruzi.
Assay [2] addresses Rhodesain (Trypanosoma brucei rhodesiense, UniProt Q95PM0). Nature of the assay: Inhibitory concentration against rhodesain of Trypanosoma brucei rhodesience.
Assay [3] addresses T1, Falcipain 2 (Plasmodium falciparum, UniProt Q9N6S8).
T1 sequence (Q9N6S8 whole entry): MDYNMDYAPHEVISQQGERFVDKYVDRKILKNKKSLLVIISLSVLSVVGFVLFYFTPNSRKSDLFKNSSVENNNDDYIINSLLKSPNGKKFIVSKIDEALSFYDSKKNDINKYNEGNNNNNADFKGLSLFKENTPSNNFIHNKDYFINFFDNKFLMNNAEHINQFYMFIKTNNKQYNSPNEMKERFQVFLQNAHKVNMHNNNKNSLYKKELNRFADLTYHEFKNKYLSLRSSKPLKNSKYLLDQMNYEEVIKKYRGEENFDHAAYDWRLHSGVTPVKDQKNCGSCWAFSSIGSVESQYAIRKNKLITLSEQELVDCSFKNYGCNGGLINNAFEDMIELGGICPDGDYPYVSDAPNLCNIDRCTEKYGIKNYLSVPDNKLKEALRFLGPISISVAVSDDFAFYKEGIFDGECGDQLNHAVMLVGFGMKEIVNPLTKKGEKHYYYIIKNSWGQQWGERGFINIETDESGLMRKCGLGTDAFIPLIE
Nature of the assay: Inhibitory concentration against falcipain-2 of Plasmodium falciparum W2.

Assay [4] relates to Trypanosoma brucei rhodesiense. Nature of the assay: Effective dose to inhibit proliferation of Trypanosoma brucei rhodesiense in cell assay. Format: functional. The note with it: read-out: ED50 (the source's name).
Assay [5] concerns Trypanosoma cruzi. Nature of the assay: Effective dose to inhibit proliferation of Trypanosoma cruzi in cell assay. The settings on record: read-out: ED50 (the source's name). Format: functional.
Assay [6] has as its system Plasmodium falciparum. Nature of the assay: Effective dose against Plasmodium falciparum W2. Format: functional. The settings on record: read-out: ED50 (the source's name).
For assay [7], the system named is Plasmodium falciparum. In words: Effective dose against Plasmodium falciparum W2; Not active. Format: functional. The settings on record: read-out: ED50 (the source's name).

Chain of Rhodesain (Q95PM0 whole entry): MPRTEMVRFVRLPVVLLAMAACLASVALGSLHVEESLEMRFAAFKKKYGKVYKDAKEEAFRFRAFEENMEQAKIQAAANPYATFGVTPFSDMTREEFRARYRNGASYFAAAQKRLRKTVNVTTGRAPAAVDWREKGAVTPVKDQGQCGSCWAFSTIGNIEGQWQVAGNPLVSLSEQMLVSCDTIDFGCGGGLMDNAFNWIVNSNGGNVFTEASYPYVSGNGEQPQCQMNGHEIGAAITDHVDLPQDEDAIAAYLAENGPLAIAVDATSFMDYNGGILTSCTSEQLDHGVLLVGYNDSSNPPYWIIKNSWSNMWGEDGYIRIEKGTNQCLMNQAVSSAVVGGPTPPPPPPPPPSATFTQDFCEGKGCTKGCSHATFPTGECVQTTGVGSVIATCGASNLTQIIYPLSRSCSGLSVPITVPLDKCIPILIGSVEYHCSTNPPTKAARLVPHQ
Chain of Cruzipain (P25779 whole entry): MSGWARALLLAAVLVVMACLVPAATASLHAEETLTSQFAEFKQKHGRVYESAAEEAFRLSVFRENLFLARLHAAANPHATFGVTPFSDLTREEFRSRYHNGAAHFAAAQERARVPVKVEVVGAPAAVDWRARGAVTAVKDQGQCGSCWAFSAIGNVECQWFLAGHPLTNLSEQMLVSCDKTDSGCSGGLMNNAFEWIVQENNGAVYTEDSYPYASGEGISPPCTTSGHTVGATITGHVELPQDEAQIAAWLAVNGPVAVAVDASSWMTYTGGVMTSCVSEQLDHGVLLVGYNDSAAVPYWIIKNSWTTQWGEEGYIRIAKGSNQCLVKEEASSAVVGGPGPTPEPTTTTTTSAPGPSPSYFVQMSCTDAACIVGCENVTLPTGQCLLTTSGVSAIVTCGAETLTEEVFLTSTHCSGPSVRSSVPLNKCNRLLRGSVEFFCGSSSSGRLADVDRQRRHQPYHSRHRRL

Take `CC(C)(C)/C(=N\N=C(\N)S)c1ccc(Cl)c(Cl)c1`: the IC50 in assay [1] was greater than 10000 nM; in assay [2], 3330 nM.
For the compound `CC/C(=N\N=C(\N)S)c1ccc(Cl)c(Cl)c1`, the concentration for half-maximal inhibition (IC50) stood at 30 nM in assay [1] and 110 nM in assay [2].
As for `N/C(S)=N/N=C(\CCc1ccccc1)c1ccc(Cl)c(Cl)c1`, the figures for the IC50 in assay [1], in assay [2] and in assay [3] were 40 nM, 90 nM and 2600 nM, respectively. The EC50 in assay [4] amounted to 69 nM.
As for `N/C(S)=N/N=C(/c1ccc(Cl)c(Cl)c1)C1CCCCC1`, the figures for the half-inhibitory concentration (IC50) in assay [1], in assay [2] and in assay [3] were 3000 nM, 1100 nM and 14000 nM, respectively.
As to `CCCC/C(=N\NC(N)=S)c1ccc(Cl)c(Cl)c1`, the IC50 stood at 19 nM in assay [1], 60 nM in assay [2] and 620 nM in assay [3]. Further, the results for the EC50 in assay [4] and in assay [5] were 130 nM and 3000 nM, respectively.
With `Cc1ccc(/C(=N\N=C(\N)S)c2ccc(Cl)c(Cl)c2)cc1`, the results for the half-maximal inhibitory concentration (IC50) in assay [1], in assay [2] and in assay [3] were 40 nM, 38 nM and 1800 nM, respectively.
`CC/C(=N\NC(N)=S)c1cccc(Br)c1`: the IC50 in assay [2] came to 230 nM.
For `N/C(S)=N/N=C(\COc1ccccc1)c1ccc(Cl)c(Cl)c1`, the results for the 50% inhibitory concentration (IC50) in assay [1], in assay [2] and in assay [3] were 30 nM, 70 nM and 375 nM, respectively. The EC50 in assay [4] worked out at 1500 nM.
The corresponding values for `N/C(S)=N/N=C(/c1ccc(Cl)c(Cl)c1)C1CC1c1ccccc1` (configuration not stated) are 30 nM, 60 nM, 640 nM and 570 nM.
Consider `N/C(S)=N/N=C(\Cc1ccccc1)c1ccc(Cl)c(Cl)c1`, for which the IC50 stood at 80 nM in assay [1], 80 nM in assay [2] and 8400 nM in assay [3]. For the same compound, the EC50 in assay [6] is 19000 nM.
As for `N/C(S)=N/N=C(\C=C\c1ccccc1)c1ccc(Cl)c(Cl)c1`, the half-inhibitory concentration (IC50) in assay [1] worked out at 30 nM; in assay [2], 38 nM; in assay [3], 470 nM. In addition, the EC50 in assay [7] stood at 9000 nM; in assay [4], 72 nM.
